According to publication PMC8201735 (BMC Pharmacology & Toxicology, 2021):
Where two headings read alike, the source gives them in different places. Blank lines part the entries; values can stand above or below the molecule they belong to.

Key:
[1] = Plasma pharmacokinetics of remogliflozin etabonate and its metabolites during metformin treatment; format: in vivo, human; conditions: for AUC / Cmax / Tmax: human, plasma; for AUC: read-out: AUC(0-tau), geometric mean (%CVb); for Cmax: read-out: Cmax, geometric mean (%CVb)
Protocol: (§1) PK analysis was conducted by […] (Chapel Hill, NC, USA), under the direction of Clinical Pharmacokinetics/Modelling and Simulation, GSK using the non-compartmental analysis Model 200 (for extra vascular administration) of WinNonlin Professional Edition version 4.1 (Pharsight Corporation, Mountain View, CA). […] Descriptive statistics were used to summarize baseline demographics, safety data, and pharmacokinetic parameters. Geometric mean and % CVb (between-subject coefficient of variation) were calculated for all pharmacokinetic parameters except tmax. Comparisons of placebo with each active dose of RE were assessed in terms of change from baseline in fasting plasma lactate acid using repeated measures analysis of covariance model. The model included terms for baseline measurement, visit, treatment and visit-by-treatment interaction. The same model was applied to change from baseline in weighted means of day-time, night-time and 0-24 h of blood pressures. Within group treatment comparison was performed using mixed model on log transformed Cmax and AUC (0-last).

[2] = tested on: subjects with T2DM; assay: Adverse event monitoring, RE co-administered with metformin for 13 days; format: in vivo, human
Source text: The study was comprised of three phases; run-in, randomization, and treatment. […] In treatment phase the patients were considered in two cohorts. […] The adverse events monitoring included recording of any adverse event (AE) and serious adverse event (SAE) reported or observed during the entire study and follow-up period. All the subjects were counseled to inform study staff of any AEs that occurred during the study. Any abnormal laboratory findings (e.g., clinical chemistry, hematology, and urinalysis) or other abnormal assessments (e.g., ECGs, vital signs, physical examination) that were judged by the investigator as clinically significant were recorded as AEs or SAE.

[3] = tested on: subjects with T2DM; assay: Surveillance for lactic acidosis: fasting plasma lactic acid concentration; format: in vivo, human
Protocol: The samples for acidosis analysis were collected at screening (following an overnight fast and prior to morning dose), once during the run-in phase, at baseline (Day- 1), mornings (prior to first dose and breakfast) of Days 1, 2, 3, and 4 (inpatient) and Days 6, 8, and 10 (outpatient) and Days 13 and 14 (inpatient). Subjects were not allowed to do rigorous exercise or physical labor during the treatment phase of the study and instructed to limit exercise 12 h before sampling.
Descriptive statistics were used to summarize baseline demographics, safety data, and pharmacokinetic parameters. Geometric mean and % CVb (between-subject coefficient of variation) were calculated for all pharmacokinetic parameters except tmax. Comparisons of placebo with each active dose of RE were assessed in terms of change from baseline in fasting plasma lactate acid using repeated measures analysis of covariance model. The model included terms for baseline measurement, visit, treatment and visit-by-treatment interaction. The same model was applied to change from baseline in weighted means of day-time, night-time and 0–24 h of blood pressures. Within group treatment comparison was performed using mixed model on log transformed Cmax and AUC (0-last).

[4] = Plasma pharmacokinetics of metformin with and without RE; format: in vivo, human; conditions: for AUC / Cmax: human, plasma, oral, geometric mean; for AUC: Metformin AUC (0-tau); for Cmax: Metformin Cmax
Protocol: as §1

[5] = tested on: subjects with T2DM; assay: Oral glucose tolerance test (75 g): weighted mean plasma glucose and insulin; format: in vivo, human; conditions: Placebo + Metformin
Protocol: Oral glucose tolerance testing was performed on Day 1 and Day 13 using a 75 g oral glucose solution. Blood samples for the measurement of insulin and glucose were taken immediately before drug dosing (within 5 min of drug dosing), and at 30 min, 1, 1.5, 2, 3, 4, and 6 h following drug dosing.

[6] = Body weight; format: in vivo, human; conditions: Placebo + Metformin
Protocol: Body weight measurement was performed at screening and during inpatient Days- 1, 2, 4, 8, 13, and 14.

[7] = Fluid balance assessment (intake - urine output); format: in vivo, human; conditions: Placebo + Metformin
[8] = tested on: subjects with T2DM; assay: Oral glucose tolerance test (75 g): weighted mean plasma glucose and insulin; format: in vivo, human; conditions: Day -1 (baseline); Placebo + Metformin
[9] = tested on: subjects with T2DM; conditions: RE 500 mg BID and metformin 500 mg BID for 3 days; cited from earlier work
[10] = oral, 500 mg, Day 1, after RE 500 mg BID + metformin, N = 16
[11] = oral, 500 mg, Day 13, after RE 500 mg BID + metformin, N = 15
[12] = oral, 750 mg, Day 1, after RE 750 mg BID + metformin, N = 17
[13] = oral, 750 mg, Day 13, after RE 750 mg BID + metformin, N = 16
[14] = Placebo BID + metformin, N = 17
[15] = Day 13, Metformin + Placebo group
[16] = Day 13 Metformin + RE 750 mg BID
[17] = Day -1 metformin alone, Metformin + Placebo group
[18] = Day -1 metformin alone, Metformin + RE 500 mg group
[19] = Day 13 Metformin + RE 500 mg BID
[20] = Day -1 metformin alone, Metformin + RE 750 mg group

AUC(0-tau) accumulation ratio Day 13 versus Day 1, point estimate (90% CI) ([1]; RE 500 mg + Metformin): 1.00 (0.907–1.10)
AUC(0-tau) accumulation ratio Day 13 versus Day 1, point estimate (90% CI) ([1]; RE 500 mg + Metformin, listed as remogliflozin): 1.00 (0.91, 1.10)
AUC(0-tau) accumulation ratio Day 13 versus Day 1, point estimate (90% CI) ([1]; RE 750 mg + Metformin): 0.82 (0.755–0.899)
AUC(0-tau) accumulation ratio Day 13 versus Day 1, point estimate (90% CI) ([1]; RE 750 mg + Metformin, listed as remogliflozin): 0.82 (0.755, 0.899)
AUC [1, 10]: 4890 ng·h/mL
Cmax [1, 10]: 2000 ng/mL
Tmax ([1]; oral, 500 mg, Day 1, after RE 500 mg BID + metformin, N = 16, read-out: tmax, median (range)): 0.77 h
AUC [1, 11]: 4930 ng·h/mL
Cmax [1, 11]: 1490 ng/mL
Tmax ([1]; oral, 500 mg, Day 13, after RE 500 mg BID + metformin, N = 15, read-out: tmax, median (range)): 3 h
Tmax ([1]; oral, 500 mg, RE 500 mg group, read-out: Time of peak concentrations (range)): 0.5 to 6 h
AUC [1, 12]: 8520 ng·h/mL
Cmax [1, 12]: 4010 ng/mL
Tmax ([1]; oral, 750 mg, Day 1, after RE 750 mg BID + metformin, N = 17, read-out: tmax, median (range)): 0.75 h
AUC [1, 13]: 7000 ng·h/mL
Cmax [1, 13]: 2510 ng/mL
Tmax ([1]; oral, 750 mg, Day 13, after RE 750 mg BID + metformin, N = 16, read-out: tmax, median (range)): 1.3 h
Tmax ([1]; po, after concomitant oral administration of RE with metformin (discussion), read-out: Time of peak concentration (range)): 0.5 to 4 h
SMILES: Cc1c(Cc2ccc(OC(C)C)cc2)c(O[C@@H]2O[C@H](CO)[C@@H](O)[C@H](O)[C@H]2O)nn1C(C)C [Remogliflozin, remogliflozin]

Fasting plasma lactic acid, maximum on-therapy absolute values, Mean (SD) ([3]; Placebo BID + metformin): 1.554 (0.5094) mmol/L
Fasting plasma lactic acid, maximum on-therapy change from baseline, Mean (SD) ([3]; Placebo BID + metformin): 0.460 (0.2289) mmol/L
Fasting plasma lactic acid change from baseline, Mean (SD) ([3]; Study Day 2, Placebo BID + metformin): 0.16 (0.266) mmol/L
Fasting plasma lactic acid change from baseline, Mean (SD) ([3]; Study Day 6, Placebo BID + metformin): 0.08 (0.288) mmol/L
Fasting plasma lactic acid change from baseline, Mean (SD) ([3]; Study Day 13, Placebo BID + metformin): 0.00 (0.304) mmol/L
Subjects with lactic acid greater than the upper limits of normal (ULN) at any time ([3]; while receiving metformin alone, not sustained, minimally above ULN): four
Metformin Cmax, geometric mean [4, 15]: 2041 ng/mL
Metformin tmax, median [4, 15]: 2.5 h
Metformin Cmax, geometric mean [4, 16]: 1695 ng/mL
Metformin tmax, median [4, 16]: 2.0 h
Metformin tmax, median [4, 17]: 2.0 h
Metformin tmax, median [4, 18]: 3.0 h
AUC [4, 15]: 14000 ng·h/mL
AUC [4, 19]: 14700 ng·h/mL
AUC [4, 16]: 11400 ng·h/mL
AUC [4, 17]: 12300 ng·h/mL
AUC [4, 18]: 13900 ng·h/mL
AUC [4, 20]: 11300 ng·h/mL
Cmax [4, 19]: 2170 ng/mL
Cmax [4, 17]: 1970 ng/mL
Cmax [4, 18]: 2160 ng/mL
Cmax [4, 20]: 1760 ng/mL
Change in fluid balance, Mean (SD) ([7]; Day 2): 203.5 (999.83) ml
Change in fluid balance, Mean (SD) ([7]; Day 13): −42.0 (1262.56) ml
SMILES: CN(C)C(=N)N=C(N)N [Metformin, metformin, reference compound]
Any AE ([2]; Placebo BID + metformin >=2000 mg/day, 13 days, N = 17): 3 (18%) N(%)
Diarrhoea [2, 14]: 1 (6%) N(%)
Dizziness [2, 14]: 0 N(%)
Dyslipidemia [2, 14]: 0 N(%)
Supraventricular tachycardia [2, 14]: 0 N(%)
Thirst [2, 14]: 1 (6%) N(%)
Vomiting [2, 14]: 0 N(%)
Subjects with hypoglycemic laboratory events ([2]; placebo + metformin group, mild, resolved without intervention): one
Weighted mean plasma glucose following OGTT, Mean (SD) ([5]; Day 1 (baseline)): 12.65 (3.306) mmol/L
Weighted mean plasma insulin following OGTT, Mean (SD) ([5]; Day 13): 162.97(97.374) pmol/L
Weighted mean plasma glucose, change from baseline, Mean (SD) [5]: −0.10 (1.572) mmol/L
Weighted mean plasma insulin, change from baseline, Mean (SD) [5]: −13.88(42.349) pmol/L
Change from baseline in body weight, Mean (SD) ([6]; Day 2): −0.70 (0.679) kg
Change from baseline in body weight, Mean (SD) ([6]; Day 14): −1.02 (0.845) kg
Weighted mean plasma insulin following OGTT, Mean (SD) [8]: 176.85(104.735) pmol/L
Effect of metformin on the pharmacokinetics of RE or its metabolites [9]: no effect
